Values quoted from earlier work in patent publication US20110071136A1, “NOVEL TRICYCLIC PROTEIN KINASE MODULATORS” (CYLENE PHARMACEUTICALS, INC, priority 2009, published 2011).

What was measured:
[1] = system: leukemic cells from AML patients; settings: Fedorov et al., PNAS 104(51), 20523-28
[2] = system: MV-4-11 (AML); settings: MV-4-11 (AML) xenograft model; 2008 AACR Annual Meeting, Abstract No. 4974
[3] = system: MOLM-13 (AML); settings: MOLM-13 (AML) xenograft model; 2008 AACR Annual Meeting, Abstract No. 4974

| Compound | cell growth and cell death [1] | tumor regression [2] | tumor regression [3] |
| --- | --- | --- | --- |
| CN(C)C[C@@H]1CCn2cc(c3ccccc32)C2=C(C(=O)NC2=O)c2cn(c3ccccc23)CCO1 [Ly5333'531] | suppressed cell growth and induced cell death | – | – |
| CN1CCC(CNc2ccc3ncc(-c4cccc(OC(F)(F)F)c4)n3n2)CC1 [SGI-1776] | – | significant tumor regression | significant tumor regression |
